Values of other authors as cited in patent publication US20190167749A1, “THE OLEO GEL COMPOSITION AND DELIVERY SYSTEM WITH ACTIVE COMPOUNDS FROM CANNABIS SATIVA AND MENTHA ARVENSIS FOR REDUCTION OF INFLAMMATION AND PAIN IN DEEP TISSUES” (UAB SATIMED, priority 2016, published 2019).
Like-named read-outs stand apart in the source and are kept apart here.

Tested on: collagen-induced arthritis

## C=C(C)[C@@H]1CCC(C)=C[C@H]1c1c(O)cc(CCCCC)cc1O [CBD, cannabidiol]
Acute and chronic relapsing CIA, i.p. or oral administration
  progression of arthritis: effectively blocked progression of arthritis
i.p.
  dose with optimal effect (bell-shaped dose dependency): 5 mg/kg per day
orally
  dose with optimal effect (bell-shaped dose dependency): 25 mg/kg per day
